Experimental data as given in patent US20150376196A1, “4-SUBSTITUTED PYRROLO- AND PYRAZOLO-DIAZEPINES” (BAYER PHARMA AKTIENGESELLSCHAFT, priority 2013, published 2015).
Like-named read-outs stand apart in the source and are kept apart here.

Experiments:
MOLM-13 cells = assay: Cell proliferation assay (alamarBlue), MOLM-13; type: cell-based; details: Homo sapiens, Leukaemia, 96 hours, inhibition of cell proliferation
Protocol: (§1) In accordance with the invention, the ability of the substances to inhibit cell proliferation was determined Cell viability was determined by means of the alamarBlue® reagent (Invitrogen) in a Victor X3 Multilabel Reader (Perkin Elmer). The excitation wavelength was 530 nm and the emission wavelength […].
The MOLM-13 cells (DSMZ, ACC 554) were sown at a concentration of 4000 cells/well in 100 μl of growth medium (RPMI1640, 10% FCS) on 96-well microtitre plates.
(§2) The MDA-MB-231 cells (DSMZ, ACC 732) were sown at a concentration of 4000 cells/well in 100 μl of growth medium (DMEM/Ham's F12 medium, 10% FCS) on 96-well microtitre plates. After overnight incubation at 37° C., the fluorescence values (CI values) were determined. Then the plates were treated with various substance dilutions (1E-5 M, 3E-6 M, 1E-6 M, 3E-7 M, 1E-7 M, 3E-8 M, 1E-8 M) and incubated at 37° C. for 72 (MV-4-11, LOX-IMVI cells), 96 (MOLM-13, B16F10, […] cells), 120 (MOLP-8, KMS-12-PE cells) or 168 (LAPC-4 cells) hours. Subsequently, the fluorescence values were determined (CO values). For the data analysis, the CI values were subtracted from the CO values and the results were compared between cells which had been treated with various dilutions of the substance or only with buffer solution. The ICso values (substance concentration needed for 50% inhibition of cell proliferation) were calculated therefrom.
(§3) The substances were tested in the cell lines in Table 1, which represent the indications specified by way of example: […]

LAPC-4 cells = assay: Cell proliferation assay (alamarBlue), LAPC-4; type: cell-based; details: Homo sapiens, LAPC4, Prostate, 1 nM methyltrienolone, 168 hours, inhibition of cell proliferation
Protocol: as §1
The LAPC-4 cells (ATCC, PTA-1441TM) were sown at a concentration of 4000 cells/well in 100 μl of growth medium (RPMI1640, 2 mM L-glutamine, 10% cFCS) on 96-well microtitre plates. One day later, the LAPC-4 cells were treated with 1 nM methyltrienolone and various substance dilutions.
as §2, §3

BRD4 (BD1) = target: T1, BRD4 (BD1) (Homo sapiens, UniProt O60885); assay: Binding assay BRD4/acetylated peptide H4 (TR-FRET protein-protein interaction assay)
T1 construct: amino acids 67-152, longer constructs also being possible, preferably amino acids 44-168; made in house; host or cells: E. coli
Text: To assess the BRD4 binding strength of the substances described in this application, the ability thereof to inhibit the interaction between BRD4 (BD1) and acetylated histone H4 in a dose-dependent manner was quantified.
For this purpose, a time-resolved fluorescence resonance energy transfer (TR-FRET) assay was used, which measures the binding between N-terminally His6-tagged BRD4 (BD1) (amino acids 67-152, longer constructs also being possible, preferably amino acids 44-168) and a synthetic acetylated histone H4 (Ac-H4) peptide with sequence GRGK(Ac)GGK(Ac)GLGK(Ac)GGAK(Ac)RHGSGSK-biotin. The recombinant BRD4 protein produced in-house according to Filippakopoulos et al., Nature, 2010, 468:1119-1123 was expressed in E. coli and purified by means of (Ni-NTA) affinity and (Sephadex G-75) size exclusion chromatography. The Ac-H4 peptide can be purchased, for example, from Biosyntan (Berlin, Germany).
In the assay, typically 11 different concentrations of each substance (0.1 nM, 0.33 nM, 1.1 nM, 3.8 nM, 13 nM, 44 nM, 0.15 μM, 0.51 μM, 1.7 μM, 5.9 μM and 20 μM) were analysed as duplicates on the same microtitre plate. For this purpose, 100-fold concentrated solutions in DMSO were prepared by serial dilutions (1:3.4) of a 2 mM stock solution into a clear, 384-well microtitre plate (Greiner Bio-One, Frickenhausen, Germany). From this, 50 nl were transferred into a black test plate (Greiner Bio-One, Frickenhausen, Germany). The test was started by the addition of 2 μl of a 2.5-fold concentrated BRD4 solution (final concentration typically 10 nM in the 5 μl of reaction volume) in aqueous assay buffer [50 mM HEPES pH 7.5, 50 mM sodium chloride (NaCl), 0.25 mM CHAPS and 0.05% serum albumin (BSA)] to the substances in the test plate. This was followed by a 10-minute incubation step at 22° C. for the pre-equilibration of putative complexes between BRD4 and the substances.
The mixture was then incubated in the dark at 22° C. for one hour and then at 4° C. for at least 3 hours and for no longer than overnight. The formation of BRD4/Ac-H4 complexes was determined by the measurement of the resonance energy transfer from the streptavidin-Eu cryptate to the anti-6His-XL665 antibody present in the reaction. For this purpose, the fluorescence emission was measured at 620 nm and 665 nm after excitation at 330-350 nm in a TR-FRET measuring instrument, for example a Rubystar or Pherastar (both from BMG Lab Technologies, Offenburg, Germany) or a Viewlux (Perkin-Elmer). The ratio of the emissions at 665 nm and at 622 nm was taken as an indicator of the amount of BRD4/Ac-H4 complexes formed.
The data (ratios) obtained were normalized, with 0% inhibition corresponding to the mean from the measurements for a set of controls (typically 32 data points) in which all the reagents were present. In these, in place of test substances, 50 nl of DMSO (100%) were used Inhibition of 100% corresponded to the mean from the measurements for a set of controls (typically 32 data points) in which all the reagents except BRD4 were present. The IC50 was determined by regression analysis based on a 4-parameter equation (minimum, maximum, IC50, Hill; Y=max+(min−max)/(1+(X/IC50)^Hill)).

[1] = BRD4 (BD1) / acetylated histone H4 peptide, TR-FRET, read-out: IC50 (BRD4)

Compound	IC50 (MOLM-13 cells) [nM]	IC50 (LAPC-4 cells) [nM]	IC50 (BRD4 (BD1); [1]) [nM]	IC50 (BRD4 (BD1)) [nM]
Cc1c2c(cn1C)-n1c(C)nnc1[C@H](CC(=O)N1CCN3C(=O)CCC3C1)N=C2c1ccc(Cl)cc1 (single isomer, unassigned; (-)) [Example 23]	880	470	50	
Cc1c2c(cn1C)-n1c(C)nnc1[C@H](CC(=O)OC(C)(C)C)N=C2c1ccccc1 [Example 4, (−)-2-(4S)-(1,7,8-Trimethyl-6-phenyl-4,8-dihydropyrrolo[3,4f][1,2,4]triazolo[4,3-a][1,4]diazepin-4-yl)acetic acid tert-butyl ester]				310
CC(=O)N1CC(NC(=O)C[C@@H]2N=C(c3ccc(Cl)cc3)c3c(cn(C)c3C)-n3c(C)nnc32)C1 [Example 9, N-(1-Acetylazetidin-3-yl)-2-(4S)-[6-(4-chlorophenyl)-1,7,8-trimethyl-4,8-dihydropyrrolo[3,4-f][1,2,4]triazolo[4,3-a][1,4]diazepin-4-yl]acetamide]	610	550	110	
CCNC(=O)C[C@@H]1N=C(c2ccc(Cl)cc2)c2c(cn(C)c2C)-n2c(C)nnc21 [Example 10, (−)-2-[(4S)-6-(4-Chlorophenyl)-1,7,8-trimethyl-4,8-dihydropyrrolo[3,4f][1,2,4]triazolo[4,3-a][1,4]diazepin-4-yl]-N-ethylacetamide]	450		170	
Cc1nnc2n1-c1cn(C)nc1C(c1ccc(Cl)cc1)=N[C@H]2CC(=O)N1CCS(=O)(=O)CC1 [Example 15, 2-[(4S)-6-(4-Chlorophenyl)-1,8-dimethyl-4,8-dihydropyrazolo[3,4f][1,2,4]triazolo[4,3-a][1,4]diazepin-4-yl]-1-(1,1-dioxidothiomorpholin-4-yl)ethanone]	2980		450	
Cc1nnc2n1-c1cn(C)nc1C(c1ccc(Cl)cc1)=NC2CC(=O)N1CCOCC1 (stereo not drawn) [Example 16, 2-[6-(4-Chlorophenyl)-1,8-dimethyl-4,8-dihydropyrazolo[3,4-f][1,2,4]triazolo[4,3-a][1,4]diazepin-4-yl]-1-(morpholin-4-yl)ethanone]	4550		700	
Cc1nnc2n1-c1cn(C)nc1C(c1ccc(Cl)cc1)=NC2CC(=O)N1CC(F)C1 (stereo not drawn) [Example 17, 2-[6-(4-Chlorophenyl)-1,8-dimethyl-4,8-dihydropyrazolo[3,4-f][1,2,4]triazolo[4,3-a][1,4]diazepin-4-yl]-1-(3-fluoroazetidin-1-yl)ethanone]			1140	
CCNC(=O)CC1N=C(c2ccc(Cl)cc2)c2nn(C)cc2-n2c(C)nnc21 (stereo not drawn) [Example 18, 2-[6-(4-Chlorophenol)-1,8-dimethyl-4,8-dihydropyrazolo[3,4-f][1,2,4]triazolo[4,3-a][1,4]diazepin-4-yl]-N-ethylacetamide]			780	
Cc1c2c(cn1C)-n1c(C)nnc1[C@H](CC(=O)N1CCOCC1)N=C2c1ccccc1 [Example 19, 1-(Morpholin-4-yl)-2-[(4S)-1,7,8-trimethyl-6-phenyl-4,8-dihydropyrrolo[3,4f][1,2,4]triazolo[4,3-a][1,4]diazepin-4-yl]ethanone]	1240	700	240	
Cc1c2c(cn1C)-n1c(C)nnc1[C@H](CC(=O)N1CC(Oc3ccccc3)C1)N=C2c1ccc(Cl)cc1 [Example 20, (−)-2-[(4S)-6-(4-Chlorophenyl)-1,7,8-trimethyl-4,8-dihydropyrrolo[3,4f][1,2,4]triazolo[4,3-a][1,4]diazepin-4-yl]-1-(3-phenoxyazetidin-1-yl)ethanone]	920	410	60	
Cc1c2c(cn1C)-n1c(C)nnc1[C@H](CC(=O)N1CCOCC1)N=C2c1ccc(Cl)cc1 [Example 21]	520	240	40	
Cc1c2c(cn1C)-n1c(C)nnc1[C@H](CC(=O)N1CCN(C(=O)OC(C)(C)C)CC1)N=C2c1ccc(Cl)cc1 [Example 22, (−)-4-{[(4S)-6-(4-Chlorophenyl)-1,7,8-trimethyl-4,8-dihydropyrrolo[3,4-f][1,2,4]triazolo[4,3-a][1,4]diazepin-4-yl]acetyl}piperazine-1-carboxylic acid tert-butyl ester]	720	340	20	
Cc1c2c(cn1C)-n1c(C)nnc1C(Cc1nc(C3CC3)no1)N=C2c1ccc(Cl)cc1 (stereo not drawn) [Example 24, 6-(4-Chlorophenyl)-4-[(3-cyclopropyl-1,2,4-oxadiazol-5-yl)methyl]-1,7,8-trimethyl-4,8-dihydropyrrolo[3,4-f][1,2,4]triazolo[4,3-a][1,4]diazepine]	80		50	
Cc1noc(CC2N=C(c3ccc(Cl)cc3)c3c(cn(C)c3C)-n3c(C)nnc32)n1 (stereo not drawn) [Example 25, 6-(4-Chlorophenyl)-1,7,8-trimethyl-4-[(3-methyl-1,2,4-oxadiazol-5-yl)methyl]-4,8-dihydropyrrolo[3,4-f][1,2,4]triazolo[4,3-a][1,4]diazepine]	130	80	90	
CCc1noc(CC2N=C(c3ccc(Cl)cc3)c3c(cn(C)c3C)-n3c(C)nnc32)n1 (stereo not drawn) [Example 27, 6-(4-Chlorophenyl)-1,7,8-trimethyl-4-[(3-ethyl-1,2,4-oxadiazol-5-yl)methyl]-4,8-dihydropyrrolo[3,4-f][1,2,4]triazolo[4,3-a][1,4]diazepine]	100		30	
Cc1c2c(cn1C)-n1c(C)nnc1C(Cc1nc(C(C)C)no1)N=C2c1ccc(Cl)cc1 (stereo not drawn) [Example 29, 6-(4-Chlorophenyl)-1,7,8-trimethyl-4-{[3-(propan-2-yl)-1,2,4-oxadiazol-5-yl]methyl}-4,8-dihydropyrrolo[3,4-f][1,2,4]triazolo[4,3-a][1,4]diazepine]	80		30	
Cc1c2c(cn1C)-n1c(C)nnc1C(Cc1nc(C(C)(C)C)no1)N=C2c1ccc(Cl)cc1 (stereo not drawn) [Example 31, 4-[(3-tert-Butyl-1,2,4-oxadiazol-5-yl)methyl]-6-(4-chlorophenyl)-1,7,8-trimethyl-4,8-dihydropyrrolo[3,4-f][1,2,4]triazolo[4,3-a][1,4]diazepine]	490	350	490	
